Experimental findings from the Kinase Knowledgebase extract (Sharma et al. 2016) are described below.

The target of this test is MAPK14;MAPK11;MAPK12;MAPK13 (human) (UniProt Q16539). As to the kind of experiment: Assessment of Activity of MAPK11, MAPK12, MAPK13 and MAPK14 Kinases.
Molecule `CCn1c(=O)cc(Nc2cc(C(=O)NC3CC3)ccc2C)c2cnn(-c3ccc(F)cc3)c21` gave an IC50 of less than 0.025 µM.
On to `CCn1c(=O)cc(Oc2cc(C(=O)NC3CC3)ccc2C)c2cnn(-c3ccc(F)cc3)c21`, for which the IC50 is less than 0.025 µM.
In turn, `Cc1ccc(C(=O)NC2CC2)cc1Oc1cc(=O)n(C)c2c1cnn2-c1c(F)cccc1F` displayed an IC50 of less than 0.025 µM.
As for `Cc1ccc(C(N)=O)cc1Nc1cc(=O)n(C)c2c1cnn2-c1cc(F)ccc1F`, the figure is less than 0.025 µM; as for `CCn1c(=O)cc(Nc2cc(C(=O)NC3CC3)ccc2Cl)c2cnn(-c3ccc(F)cc3)c21`, 0.0017 µM; as for `Cn1c(=O)cc(Nc2cc(C(=O)NC3CC3)ccc2Cl)c2cnn(-c3c(F)cccc3F)c21`, less than 0.025 µM.
As for `Cc1ccc(C(=O)NC2CC2)cc1Nc1cc(=O)n(C)c2c1cnn2-c1cc(F)ccc1F`, the figure is less than 0.025 µM.
As for `Cc1ccc(C(=O)NC2CC2)cc1Nc1cc(=O)n(C)c2c1cnn2-c1c(F)cccc1F`, the figure is less than 0.025 µM.
The molecule `Cc1ccc(C(=O)NC2CC2)cc1Nc1cc(=O)n(C)c2c1cnn2-c1cccc(F)c1` gave an IC50 of less than 0.025 µM.
`Cn1c(=O)cc(Nc2cc(C(=O)NC3CC3)ccc2F)c2cnn(-c3ccc(F)cc3F)c21`: the IC50 is less than 0.025 µM.
As for `CONC(=O)c1ccc(C)c(Nc2cc(=O)n(C)c3c2cnn3-c2ccc(F)cc2F)c1`, the figure is 0.0016 µM.
With `Cc1ccc(C(=O)NC2CC2)cc1Oc1cc(=O)n(C)c2c1cnn2-c1ccc(F)cc1F` the figure was less than 0.025 µM; with `Cn1c(=O)cc(Nc2cc(C(=O)NC3CC3)ccc2Cl)c2cnn(-c3ccc(F)cc3)c21`, 0.0021 µM.
As for `Cn1c(=O)cc(Nc2cc(C(=O)NC3CC3)ccc2Cl)c2cnn(-c3cc(F)ccc3F)c21`, the figure is less than 0.025 µM; as for `Cc1ccc(C(N)=O)cc1Nc1cc(=O)n(C)c2c1cnn2-c1ccc(F)cc1F`, less than 0.025 µM; as for `Cc1ccc(C(=O)NC2CC2)cc1Oc1cc(=O)n(C)c2c1cnn2-c1cccc(F)c1`, less than 0.025 µM.
Turning to `CCn1c(=O)cc(Nc2cc(C(=O)NC3CC3)ccc2Cl)c2cnn(-c3ccc(F)cc3F)c21`, the IC50 turned out to be 0.0012 µM.
In the case of `Cc1ccc(C(=O)NC2CC2)cc1Oc1cc(=O)n(C)c2c1cnn2-c1cc(F)ccc1F`, the IC50 was less than 0.025 µM.

The IC50 is the concentration that gives 50% inhibition. Read a high IC50 as weaker potency in that assay.
